# What was measured:
# Test in all cases: relative viability (nuclei count vs DMSO), 5 days (fraction); higher = more cells survive
# ABC-1 = tested on: ABC-1
# Procedure, shortened: (§1)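 Cells from lung cancer lines were seeded into 1536-well plates and, one day later, dosed by pin tool. Treatments were either a single drug or a fixed dose of an anchor drug with five library-drug doses (not always all listed) in √10 steps. After 5 days, nuclei were stained in a one-step fixation (final 0.05% Triton X-100, 1% formaldehyde, 1 ug/ml Hoechst) and counted on 4× images, and relative viability is the treated-to-vehicle nuclei ratio, as the median of duplicate plates.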
# CAL-12T = tested on: CAL-12T
# Procedure, shortened: as §1
# COR-L 105 = tested on: COR-L 105
# Procedure, shortened: as §1
# ChaGo-K-1 = tested on: ChaGo-K-1
# Procedure, shortened: as §1
# EMC-BAC-2 = tested on: EMC-BAC-2
# Procedure, shortened: as §1
# EPLC-272H = tested on: EPLC-272H
# Procedure, shortened: as §1
# HCC-15 = tested on: HCC-15
# Procedure, shortened: as §1
# HCC-78 = tested on: HCC-78
# Procedure, shortened: as §1
# HOP-62 = tested on: HOP-62
# Procedure, shortened: as §1
# LXF-289 = tested on: LXF-289
# Procedure, shortened: as §1
# NCI-H1666 = tested on: NCI-H1666
# Procedure, shortened: as §1
# NCI-H1755 = tested on: NCI-H1755
# Procedure, shortened: as §1
# NCI-H1915 = tested on: NCI-H1915
# Procedure, shortened: as §1
# NCI-H1975 = tested on: NCI-H1975
# Procedure, shortened: as §1
# NCI-H2023 = tested on: NCI-H2023
# Procedure, shortened: as §1
# NCI-H2085 = tested on: NCI-H2085
# Procedure, shortened: as §1
# NCI-H2126 = tested on: NCI-H2126
# Procedure, shortened: as §1
# NCI-H3122 = tested on: NCI-H3122
# Procedure, shortened: as §1
# NCI-H322M = tested on: NCI-H322M
# Procedure, shortened: as §1
# NCI-H358 = tested on: NCI-H358
# Procedure, shortened: as §1
# NCI-H441 = tested on: NCI-H441
# Procedure, shortened: as §1
# UMC-11 = tested on: UMC-11
# Procedure, shortened: as §1
smiles,measurement,setting,value
Cc1sc2c(c1C)C(c1ccc(Cl)cc1)=N[C@@H](CC(=O)OC(C)(C)C)c1nnc(C)n1-2 [JQ1] + N=C(N)NC(=N)NCCc1ccccc1 [Phenformin] (partner 250 µM),relative viability,ABC-1; first compound 0.04 µM,0.238
same,relative viability,ABC-1; first compound 0.1265 µM,0.282
same,relative viability,ABC-1; first compound 0.4 µM,0.225
same,relative viability,ABC-1; first compound 1.265 µM,0.227
same,relative viability,ABC-1; first compound 4 µM,0.232
same,relative viability,CAL-12T; first compound 0.04 µM,0.522
same,relative viability,CAL-12T; first compound 0.1265 µM,0.443
same,relative viability,CAL-12T; first compound 0.4 µM,0.42
same,relative viability,CAL-12T; first compound 1.265 µM,0.253
same,relative viability,CAL-12T; first compound 4 µM,0.284
same,relative viability,COR-L 105; first compound 0.04 µM,0.432
same,relative viability,COR-L 105; first compound 0.1265 µM,0.239
same,relative viability,COR-L 105; first compound 0.4 µM,0.217
same,relative viability,COR-L 105; first compound 1.265 µM,0.22
same,relative viability,COR-L 105; first compound 4 µM,0.289
same,relative viability,ChaGo-K-1; first compound 0.04 µM,0.436
same,relative viability,ChaGo-K-1; first compound 0.1265 µM,0.495
same,relative viability,ChaGo-K-1; first compound 0.4 µM,0.401
same,relative viability,ChaGo-K-1; first compound 1.265 µM,0.324
same,relative viability,ChaGo-K-1; first compound 4 µM,0.286
same,relative viability,EMC-BAC-2; first compound 0.04 µM,0.551
same,relative viability,EMC-BAC-2; first compound 0.1265 µM,0.326
same,relative viability,EMC-BAC-2; first compound 0.4 µM,0.454
same,relative viability,EMC-BAC-2; first compound 1.265 µM,0.267
same,relative viability,EMC-BAC-2; first compound 4 µM,0.264
same,relative viability,EPLC-272H; first compound 0.04 µM,0.33
same,relative viability,EPLC-272H; first compound 0.1265 µM,0.262
same,relative viability,EPLC-272H; first compound 0.4 µM,0.249
same,relative viability,EPLC-272H; first compound 1.265 µM,0.294
same,relative viability,EPLC-272H; first compound 4 µM,0.188
same,relative viability,HCC-15; first compound 0.04 µM,0.458
same,relative viability,HCC-15; first compound 0.4 µM,0.318
same,relative viability,HCC-15; first compound 1.265 µM,0.189
same,relative viability,HCC-15; first compound 4 µM,0.19
same,relative viability,HCC-78; first compound 0.04 µM,0.727
same,relative viability,HCC-78; first compound 0.1265 µM,0.657
same,relative viability,HCC-78; first compound 0.4 µM,0.727
same,relative viability,HCC-78; first compound 1.265 µM,0.515
same,relative viability,HCC-78; first compound 4 µM,0.435
same,relative viability,HOP-62; first compound 0.04 µM,0.633
same,relative viability,HOP-62; first compound 0.1265 µM,0.547
same,relative viability,HOP-62; first compound 0.4 µM,0.622
same,relative viability,HOP-62; first compound 1.265 µM,0.182
same,relative viability,HOP-62; first compound 4 µM,0.102
same,relative viability,LXF-289; first compound 0.04 µM,0.518
same,relative viability,LXF-289; first compound 0.1265 µM,0.474
same,relative viability,LXF-289; first compound 0.4 µM,0.444
same,relative viability,LXF-289; first compound 1.265 µM,0.323
same,relative viability,LXF-289; first compound 4 µM,0.316
same,relative viability,NCI-H1666; first compound 0.04 µM,0.572
same,relative viability,NCI-H1666; first compound 0.1265 µM,0.596
same,relative viability,NCI-H1666; first compound 0.4 µM,0.501
same,relative viability,NCI-H1666; first compound 1.265 µM,0.516
same,relative viability,NCI-H1666; first compound 4 µM,0.486
same,relative viability,NCI-H1755; first compound 0.04 µM,0.687
same,relative viability,NCI-H1755; first compound 0.1265 µM,0.501
same,relative viability,NCI-H1755; first compound 0.4 µM,0.506
same,relative viability,NCI-H1755; first compound 1.265 µM,0.462
same,relative viability,NCI-H1755; first compound 4 µM,0.419
same,relative viability,NCI-H1915; first compound 0.04 µM,0.347
same,relative viability,NCI-H1915; first compound 0.1265 µM,0.334
same,relative viability,NCI-H1915; first compound 0.4 µM,0.329
same,relative viability,NCI-H1915; first compound 1.265 µM,0.212
same,relative viability,NCI-H1915; first compound 4 µM,0.177
same,relative viability,NCI-H1975; first compound 0.04 µM,0.41
same,relative viability,NCI-H1975; first compound 0.1265 µM,0.31
same,relative viability,NCI-H1975; first compound 0.4 µM,0.381
same,relative viability,NCI-H1975; first compound 1.265 µM,0.299
same,relative viability,NCI-H1975; first compound 4 µM,0.297
same,relative viability,NCI-H2023; first compound 0.04 µM,0.399
same,relative viability,NCI-H2023; first compound 0.1265 µM,0.354
same,relative viability,NCI-H2023; first compound 0.4 µM,0.307
same,relative viability,NCI-H2023; first compound 1.265 µM,0.177
same,relative viability,NCI-H2023; first compound 4 µM,0.147
same,relative viability,NCI-H2085; first compound 0.04 µM,0.712
same,relative viability,NCI-H2085; first compound 0.1265 µM,0.611
same,relative viability,NCI-H2085; first compound 0.4 µM,0.552
same,relative viability,NCI-H2085; first compound 1.265 µM,0.393
same,relative viability,NCI-H2085; first compound 4 µM,0.426
same,relative viability,NCI-H2126; first compound 0.04 µM,0.552
same,relative viability,NCI-H2126; first compound 0.1265 µM,0.555
same,relative viability,NCI-H2126; first compound 0.4 µM,0.489
same,relative viability,NCI-H2126; first compound 1.265 µM,0.39
same,relative viability,NCI-H2126; first compound 4 µM,0.411
same,relative viability,NCI-H3122; first compound 0.04 µM,0.362
same,relative viability,NCI-H3122; first compound 0.4 µM,0.377
same,relative viability,NCI-H3122; first compound 1.265 µM,0.313
same,relative viability,NCI-H3122; first compound 4 µM,0.264
same,relative viability,NCI-H322M; first compound 0.04 µM,0.686
same,relative viability,NCI-H322M; first compound 0.1265 µM,0.746
same,relative viability,NCI-H322M; first compound 0.4 µM,0.66
same,relative viability,NCI-H322M; first compound 1.265 µM,0.373
same,relative viability,NCI-H322M; first compound 4 µM,0.417
same,relative viability,NCI-H358; first compound 0.04 µM,0.355
same,relative viability,NCI-H358; first compound 0.1265 µM,0.335
same,relative viability,NCI-H358; first compound 0.4 µM,0.361
same,relative viability,NCI-H358; first compound 1.265 µM,0.198
same,relative viability,NCI-H358; first compound 4 µM,0.161
same,relative viability,NCI-H441; first compound 0.04 µM,0.728
same,relative viability,NCI-H441; first compound 0.1265 µM,0.778
same,relative viability,NCI-H441; first compound 0.4 µM,0.681
same,relative viability,NCI-H441; first compound 1.265 µM,0.388
same,relative viability,NCI-H441; first compound 4 µM,0.289
same,relative viability,UMC-11; first compound 0.04 µM,0.29
same,relative viability,UMC-11; first compound 0.1265 µM,0.211
same,relative viability,UMC-11; first compound 0.4 µM,0.231
same,relative viability,UMC-11; first compound 1.265 µM,0.224
same,relative viability,UMC-11; first compound 4 µM,0.195

# Source: the supplement of paper PMC10307832
